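Five compound concentrations were applied to cells in 96-well plates for 48 hours; endpoints were derived by simple linear interpolation of the resulting dose-response curve. TGI: concentration producing complete growth inhibition.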
Assays:
Experiment in all cases: inhibition of tumour cell growth, NCI panel, 48 h
[1] = system: HS 578T breast
[2] = system: NCI-H460 lung
[3] = system: SF-268 CNS
[4] = system: OVCAR-3 ovarian
[5] = system: MCF7 breast
[6] = system: HT29 colon
[7] = system: SK-MEL-2 melanoma
[8] = system: SNB-75 CNS
[9] = system: RPMI-8226 leukemia
[10] = system: CAKI-1 renal
[11] = system: T-47D breast
[12] = system: OVCAR-5 ovarian
[13] = system: MOLT-4 leukemia
[14] = system: DU-145 prostate
[15] = system: A498 renal
[16] = system: OVCAR-4 ovarian
[17] = system: COLO 205 colon
[18] = system: HOP-62 NSCLC
[19] = system: ACHN renal
[20] = system: DMS 114 small cell lung

Compound | TGI [1] [µM] | TGI [2] [µM] | TGI [3] [µM] | TGI [4] [µM] | TGI [5] [µM] | TGI [6] [µM] | TGI [7] [µM] | TGI [8] [µM] | TGI [9] [µM] | TGI [10] [µM] | TGI [11] [µM] | TGI [12] [µM] | TGI [13] [µM] | TGI [14] [µM] | TGI [15] [µM] | TGI [16] [µM] | TGI [17] [µM] | TGI [18] [µM] | TGI [19] [µM] | TGI [20] [µM]
COc1ccc2c(c1)CCC(CN1CCN(CCOC(c3ccc(F)cc3)c3ccc(F)cc3)CC1)C2O (configuration not stated) | 38.7 | 44.9 | 27 | 32.5 | 39.7 | 18.4 | 30.8 | 32.9 | 35.4 | 32 | 39 | 28.6 | 36.2 | 34.8 | 19.9 | 32.9 | 20.2 | 34.5 | 19.8 | 
CC(OC1CC(=O)CC2C(=O)C=CC(=O)C12)c1ccccc1 (configuration not stated) |  | > 59.4 | 40.9 | 33.3 |  | 33 | 34.9 | > 57.7 | 58.5 | 31.9 |  | 31.6 | > 49.2 |  | 32 | 32.4 | 32 | > 58.8 | 24.1 | 23
N#Cc1nc(Sc2cnsn2)c(Sc2cnsn2)nc1C#N | 43 | > 60.9 | 40.6 | 22.1 | > 59.1 | 47.6 | 47 | 48.8 | > 100 | 12.5 | > 27.6 | 38.8 | > 30.1 | 35.5 | 43.8 | 61.1 | 19 | 42.4 | 16 | 
CC(C)c1cccc(C(C)C)c1NC(=O)C(=O)CC(=O)CC(c1ccccc1)c1c(O)c2ccccc2oc1=O (configuration not stated) |  | > 100 | > 100 | > 100 |  | > 100 | > 100 |  | > 100 | > 100 |  | > 100 | > 100 |  | > 100 | > 100 | > 100 | > 100 | > 100 | > 100
CCOC(=O)c1ccc(NC(=O)O/N=C(/Cl)C(C)C)cc1 | 94.8 | 38.3 | 34.8 | 11.5 | 21.3 | 48 | 29.3 | 27.4 | 24.8 | 8.87 | 6.62 | 32.9 | 4.63 | > 67.2 | 28.4 | 28.4 | 5.77 | 32.2 | 27 | 
CCOC(=O)NC(Nc1ccc(F)c(F)c1)(C(=O)OCC)C(F)(F)F (configuration not stated) | > 100 | > 100 | > 100 | > 100 | > 100 | > 100 | > 86.5 | > 100 | > 100 | > 100 | > 100 | > 100 | > 100 | > 100 | > 100 | > 100 | > 100 | > 100 | > 100 | 
CC1=C(C(=O)NNC(=O)C(N)=O)CC(C(=O)NNC(=O)C(N)=O)=C(C)N1 | > 100 | > 100 | > 100 | > 100 | > 100 | > 100 | > 100 | > 100 | > 100 | > 100 | > 100 | > 100 | > 100 | > 100 | > 100 | > 100 | > 100 | > 100 | > 100 | 
OC1CSCCCSCCSCCCSC1 | > 100 | > 100 | > 100 | > 100 | > 100 | > 100 | > 100 | > 100 | > 100 | > 100 | > 100 | > 100 | > 100 | > 100 | > 100 | > 100 | > 100 | > 100 | > 100 | 
COc1cc2c(cc1OC)C(=O)Cc1ccc3c(c1CNCC2)OCO3 |  | > 100 | > 100 | > 100 |  | > 100 | > 100 | > 100 | > 100 | > 100 |  | > 100 | > 100 |  | > 100 | > 100 | > 100 | > 100 | > 100 | > 100
O=[N+]([O-])c1cc2c(cc1O)[nH]c1cccc([N+](=O)[O-])c12 |  | > 100 | > 100 | > 100 |  | > 100 | > 100 | > 100 | > 100 | > 100 |  | > 100 | > 100 |  |  | > 100 | > 100 | > 100 | > 100 | > 100
CN/C=C(/c1ccc(OC)cc1)C(O)c1ccc(OC)c(OC)c1 (configuration not stated) |  | > 100 |  | > 100 |  | > 100 | > 100 | > 100 | > 100 |  |  | > 100 | > 100 |  | > 100 | > 100 | > 100 | > 100 | > 100 | > 100
COc1cc2c(cc1O)[C@H](C)C(c1ccccc1OC)O2 (some centres not stated) |  | 4.2 | > 100 | > 100 |  | 61.3 |  | 6.48 | 13.9 | 69.2 |  | > 100 |  |  | 56 | 60.2 | 27 |  | 23.9 | 11
c1ccc(CN2CCCN3CCN(CCCN(Cc4ccccc4)CC3)CC2)cc1 | > 100 | > 100 | > 100 | > 100 | > 100 | > 100 | 49.9 | > 100 | > 100 | > 100 | > 100 | > 100 | > 100 | > 100 | > 100 | > 100 | 57.8 | > 100 | > 100 | 

Reference: PubChem BioAssay (NCI)
